# Assay results from patent US20220257593A1, “CARABACHOL-BROMONIDINE FORMULATION TO ENHANCE ANTI-PRESBYOPIA EFFECTS” (Visus Therapeutics, Inc., priority 2019, published 2022).
# “And” between values parts separate entries of the source, which are not always exact repeats. Equal entries are not always repeated. “Also recorded” adds a separate entry of the source. Where two headings read alike, the source gives them in different places.
# How the values were obtained:
# [1] = Example 8: stability of pilocarpine at neutral pH; type: physicochemical; conditions: needs about pH 5
# presbyopic subjects [2] = test: Example 8 dose range studies: tolerability, adverse symptoms and satisfaction survey
# From the text: Both Groups 1 and 2 received the same pre- and post-treatment work-up and measurements: Age, gender, initial pupil size, and near vision acuity (NVA) were documented.
# The survey asked the patients whether they would use the drops again.
# [3] = test system: presbyopic subjects, non-dominant eye; test: Example 8 dose range studies of carbachol and pilocarpine with and without brimonidine: near visual acuity (LogMAR) and pupil diameter; type: in vivo, human; conditions: for change in LogMAR VA, pilocarpine vs carbachol, each plus 0.2% brimonidine: FIGS. 12 and 13
# Description: Dose range studies were performed for carbachol and pilocarpine. […] Pilocarpine and carbachol were also compared to each other, with and without brimonidine.
# [4] = FDA product insert for isoptocarpine; cited from earlier work
# [5] = test system: emmetropic and presbyopic subjects, non-dominant eye; test: Examples 7 and 13 crossover trial: pupil size (Colvard infrared pupilometer); type: in vivo, human; conditions: for PS (mean pupil size): mean ± SD, ten subjects, pre-treatment 4.3 ± 0.5
# Description: (§1) A prospective, double-masked, randomized, controlled clinical trial was conducted.
# (§2) The 3% carbachol drops included 50 ppm of benzalkonium chloride.
# [6] = test system: emmetropic and presbyopic subjects, non-dominant eye; test: Examples 7 and 13 crossover trial: near visual acuity, combined vs separate 3% carbachol and 0.2% brimonidine, carbachol alone, brimonidine alone; type: in vivo, human; conditions: for NVA (mean near visual acuity): mean ± SD, ten subjects, pre-treatment 8.6 ± 1.5
# Description: Participants were volunteers selected at random.
# as §1
# Participants were randomly selected volunteers.
# as §2
# presbyopic subjects [7] = conditions: subjects receiving brimonidine drops
# [8] = test system: emmetropic, myopic and hyperopic presbyopes
smiles,measurement,setting,value
"CC[C@@H]1C(=O)OC[C@@H]1Cc1cncn1C [pilocarpine, reference compound]",stability at neutral pH,[1],unstable at neutral pH
same,burning,presbyopic subjects [2]; in vivo,burned
same,"change in LogMAR VA, pilocarpine vs carbachol, each plus 0.2% brimonidine",[3],favored pilocarpine for hours 1 and 2
same,onset and duration of effect,[3]; compared with carbachol,more immediate effect; also recorded: shorter duration
same,brow ache rate,[4],> 5%
"C[N+](C)(C)CCOC(N)=O [3% carbachol alone, carbachol]",PS (mean pupil size),[5]; 1-h post-treatment,2.8 ± 0.3 mm
same,PS (mean pupil size),[5]; 2-h post-treatment,3 ± 0.3 mm
same,PS (mean pupil size),[5]; 4-h post-treatment,3.5 ± 0.3 mm
same,PS (mean pupil size),[5]; 8-h post-treatment,4 ± 0.3 mm
same,mean pupil size (PS),"[5]; 1 h post-treatment, before treatment 4.3±0.5 mm",2.8±0.3 mm
same,mean pupil size (PS),[5]; 2 h post-treatment,3±0.3 mm
same,mean pupil size (PS),[5]; 4 h post-treatment,3.5±0.3 mm
same,mean pupil size (PS),[5]; 8 h post-treatment,4±0.3 mm
same,hours in which mean pupil size reached the target pupil size of <2.5 mm,"[5]; emmetropic presbyopes, FIG. 24",never achieved the target pupil size during hours 1-8
same,NVA (mean near visual acuity),[6]; 1-h post-treatment,5.5 ± 1 J
same,NVA (mean near visual acuity),[6]; 2-h post-treatment,5.9 ± 0.8 J
same,NVA (mean near visual acuity),[6]; 4-h post-treatment,7 ± 1.2 J
same,NVA (mean near visual acuity),[6]; 8-h post-treatment,7.5 ± 1 J
same,mean near visual acuity (NVA),"[6]; 1 h post-treatment, before treatment J 8.6±1.5, 10 subjects crossover",5.5 ± 1 J
same,mean near visual acuity (NVA),[6]; 2 h post-treatment,5.9 ± 0.8 J
same,mean near visual acuity (NVA),[6]; 4 h post-treatment,7 ± 1.2 J
same,mean near visual acuity (NVA),[6]; 8 h post-treatment,7.5 ± 1 J
same,hours in which mean near visual acuity (NVA) was ≥20/40,"[6]; emmetropic presbyopes, FIG. 25",never achieved an NVA of ≥20/40
CC[C@@H]1C(=O)OC[C@@H]1Cc1cncn1C [Pilo Alone],Pilo Alone 1 hr nVA,"[3]; Pilo 0.5%, individual patients",3 J and 6 J and 5 J
same,Pilo Alone 1 hr pupil,"[3]; Pilo 0.5%, individual patients",3.8 and 3 (2×)
same,Pilo Alone 2 hrs nVA,"[3]; Pilo 0.5%, individual patients",5 J (2×) and 3 J (2×)
same,Pilo Alone 2 hrs pupil,"[3]; Pilo 0.5%, individual patients",3 and 4 and 2.5 and 3.3
same,Pilo Alone 4 hrs nVA,"[3]; Pilo 0.5%, individual patients",5 J (3×) and 3 J
same,Pilo Alone 4 hrs pupil,"[3]; Pilo 0.5%, individual patients",3.3 and 4 and 3 and 4.2
same,Pilo Alone 1 hr nVA,"[3]; Pilo 1%, individual patients",3 J (2×) and 2 J and 8 J
same,Pilo Alone 1 hr pupil,"[3]; Pilo 1%, individual patients",2.5 (2×) and 1.5 and 3
same,Pilo Alone 2 hrs nVA,"[3]; Pilo 1%, individual patients",3 J and 2 J (2×) and 8 J
same,Pilo Alone 2 hrs pupil,"[3]; Pilo 1%, individual patients",3 (2×) and 1.5 and 2.5
same,Pilo Alone 4 hrs nVA,"[3]; Pilo 1%, individual patients",5 J (2×) and 3 J and 10 J
same,Pilo Alone 4 hrs pupil,"[3]; Pilo 1%, individual patients",4 (2×) and 2.5 and 3
same,Pilo Alone 1 hr nVA,"[3]; Pilo .05%, patient 5",3 J
same,Pilo Alone 1 hr pupil,"[3]; Pilo .05%, patient 5",2.5
same,Pilo Alone 4 hrs pupil,"[3]; Pilo […], individual patients",4
"C[N+](C)(C)CCOC(N)=O [carbachol, reference compound]",dose response for tolerability,"presbyopic subjects [2]; carbachol […], […], 3% plus brimonidine, seven days, FIG. 15",An inverse dose response
same,"change in LogMAR VA, pilocarpine vs carbachol, each plus 0.2% brimonidine",[3],favored carbachol for hours 8 and 10
same,duration of effect,[3]; in vivo,8 h
"Brc1c(NC2=NCCN2)ccc2nccnc12 [Brimonidine 0.2%, brimonidine]","mild burning sensation, number of subjects",presbyopic subjects [7],10 subjects
same,synergy with carbachol and pilocarpine,[3]; 0.2% brimonidine,synergistic with both carbachol and pilocarpine
same,difference in mean NVA before treatment and at any time point after treatment,[8]; Group 1 emmetropic presbyopes,No statistically significant difference in mean NVA
same,difference in mean NVA before treatment and at any time point after treatment,[8]; Group 2 myopic presbyopes,No statistically significant difference in mean NVA
same,difference in mean NVA before treatment and at any time point after treatment,[8]; Group 3 hyperopic presbyopes,No statistically significant difference in mean NVA
same,PS (mean pupil size),[5]; 1-h post-treatment,3.95 ± 0.5 mm
same,PS (mean pupil size),[5]; 2-h post-treatment,4.2 ± 0.4 mm
same,PS (mean pupil size),[5]; 4-h post-treatment,4.3 ± 0.5 mm
same,PS (mean pupil size),[5]; 8-h post-treatment,4.3 ± 0.5 mm
same,effect on pupil size or NVA,[5]; 50 ppm benzalkonium chloride,virtually no effect
same,difference in mean PS before treatment and at any time point after treatment,[5]; P >0.05,no statistically significant difference
same,miotic effect,"[5]; first hour after instillation, light luminance conditions, not significant (P >0.05)",mild miotic effect
same,NVA (mean near visual acuity),[6]; 1-h post-treatment,7.7 ± 1.3 J
same,NVA (mean near visual acuity),[6]; 2-h post-treatment,8.2 ± 1.3 J
same,NVA (mean near visual acuity),[6]; 4-h post-treatment,8.5 ± 1.4 J
same,NVA (mean near visual acuity),[6]; 8-h post-treatment,8.6 ± 1.5 J
same,difference in mean NVA before treatment and at any time point after treatment,[6]; P >0.05,no statistically significant difference
same,"mean change / improvement in near visual acuity compared among combination, separate drops, carbachol alone, brimonidine alone",[6]; over eight hours,the least
